Values joined by “and” are separate entries in the source; they are usually repeats but may differ in a detail not shown here. Identical values can stand only once. “Also recorded” adds a separate entry of the source.
Assays:
[1] = tested on: B16F1 melanoma tumor xenografts; experiment: biodistribution in mice bearing B16F1 tumor xenografts; type: in vivo, C57BL/6 mice; details: for tumor-to-brain tissue ratio: B16F1 group; for Adrenals %IA/g tissue (mean ± SD) / Blood %IA/g tissue (mean ± SD) / Bone %IA/g tissue (mean ± SD) / Brain %IA/g tissue (mean ± SD) / Heart %IA/g tissue (mean ± SD) / Kidneys %IA/g tissue (mean ± SD) / Liver %IA/g tissue (mean ± SD) / Lung %IA/g tissue (mean ± SD) / Muscles %IA/g tissue (mean ± SD) / Pancreas %IA/g tissue (mean ± SD) / Sm. Intestine %IA/g tissue (mean ± SD) / Spleen %IA/g tissue (mean ± SD): B16F1 tumor mice; for Tumor %IA/g tissue (mean ± SD): B16F1 tumor
Description: (§1) B16F1 melanoma cells, HT-29 human colorectal adenocarcinoma cells, and C-32 amelanotic melanoma cells were purchased from the American Type Culture Collection (ATCC, Rockville, MD). B16F1 murine melanotic melanoma cells were maintained in Dulbecco’s modified Eagles medium supplemented with 10% fetal calf-serum, 2 mM L-glutamine, and 1 mM pyruvate. HT-29 and C-32 cells were maintained in RPMI supplemented with 10% fetal calf serum and 2 mM L-glutamine. C57BL/6 and athymic nu/nu mice were purchased from Charles River Laboratories (Charles River Laboratories, Boston, MA). All animal studies were performed using an IACUC-approved protocol, and the work was performed under the guidelines established by Wake Forest University. The cells were grown to confluency, harvested, washed with phosphate-buffered saline and then were suspended in a 1:1 mixture of phosphate-buffered saline and Matrigel (BD Life Sciences, San Jose, CA) at a concentration of 5 × 10^6 cells/mL. For subcutaneous tumor xenografts, […] in the right flank with 100 μL of a suspension of B16F1 cells, and female athymic nu/nu mice were injected in the right flank with 100 μL of HT-29 cells or C-32 cells.
(§2) The biodistribution studies were performed in mice bearing B16F1 (1 h n = 5; 2 h n = 6), C-32 (1 h n = 3; 2 h n = 3), and HT-29 (1 h n = 3; 2 h n = 3) tumor xenografts. The tumor-bearing mice were injected with ~40 μCi of 4-[^18F]FEBZA. A separate group of normal C57BL/6 mice with no tumor implants (1 h n = 3; 2 h n = 3) was also injected with ~40 μCi of 4-[^18F]FEBZA to study the distribution characteristics of 4-[^18F]FEBZA in the absence of tumors. At 1 h and 2 h post-injection, the mice were euthanized, and the tissues of interest were removed, rinsed with PBS, weighed, and counted for radioactivity contents using a γ-counter.

[2] = tested on: C-32 amelanotic melanoma tumor xenografts; experiment: biodistribution in mice bearing C-32 tumor xenografts; type: in vivo, athymic nu/nu mice; details: for Adrenals %IA/g tissue (mean ± SD) / Blood %IA/g tissue (mean ± SD) / Bone %IA/g tissue (mean ± SD) / Brain %IA/g tissue (mean ± SD) / Heart %IA/g tissue (mean ± SD) / Kidneys %IA/g tissue (mean ± SD) / Liver %IA/g tissue (mean ± SD) / Lung %IA/g tissue (mean ± SD) / Muscles %IA/g tissue (mean ± SD) / Pancreas %IA/g tissue (mean ± SD) / Sm. Intestine %IA/g tissue (mean ± SD) / Spleen %IA/g tissue (mean ± SD): C-32 tumor mice; for Tumor %IA/g tissue (mean ± SD): C-32 tumor
Description: as §1, §2

[3] = tested on: B16F1 tumor; experiment: microPET imaging in mice bearing B16F1 tumor; type: in vivo
Description: (§3) In vivo imaging of 4-[^18F]FEBZA in mice bearing B16F1 (n = 2) and HT-29 (n = 1) tumor was performed using a P4 microPET™ scanner (Concorde Microsystems, Inc., Knoxville, TN). After administering ~100 μCi of 4-[^18F]FEBZA via tail-vein injection, whole body PET scans were acquired in list mode. The images were reconstructed using filtered back projection with attenuation correction. Regions Of Interest (ROIs) were drawn on select organs using the summed image from the entire scan acquisition session, and the data were analyzed using ASIPro software (Siemens Preclinical Solutions, Knoxville, TN). The time activity curves (TACs) were generated from the list mode data reconstructed into multiple 5-min frames.

[4] = tested on: HT-29 tumor; experiment: microPET imaging in mouse bearing HT-29 tumor; type: in vivo, mice
Description: as §3

CCN(CC)CCNC(=O)c1ccc(OCC[18F])cc1 [4-[^18F]FEBZA, N-(2-diethylaminoethyl) 4-[^18F]fluoroethoxybenzamide]
tumor-to-brain tissue ratio ([1]; 1 h): 3.55 ± 0.80 | tumor-to-brain tissue ratio ([1]; 2 h): 3.45 ± 0.81 | tumor-to-muscle ratio ([1]; B16F1 mice group, 2 h): 6.64 ± 1.11 | Adrenals %IA/g tissue (mean ± SD) ([1]; 1 h post-injection): 1.10 ± 0.36 %IA/g tissue | Blood %IA/g tissue (mean ± SD) ([1]; 1 h post-injection): 3.06 ± 0.52 %IA/g tissue | Bone %IA/g tissue (mean ± SD) ([1]; 1 h post-injection): 3.78 ± 0.45 %IA/g tissue | Brain %IA/g tissue (mean ± SD) ([1]; 1 h post-injection): 2.55 ± 0.61 %IA/g tissue | Heart %IA/g tissue (mean ± SD) ([1]; 1 h post-injection): 2.82 ± 0.25 %IA/g tissue | Kidneys %IA/g tissue (mean ± SD) ([1]; 1 h post-injection): 3.10 ± 0.28 %IA/g tissue | Liver %IA/g tissue (mean ± SD) ([1]; 1 h post-injection): 3.25 ± 0.34 %IA/g tissue | Lung %IA/g tissue (mean ± SD) ([1]; 1 h post-injection): 2.12 ± 0.17 %IA/g tissue | Muscles %IA/g tissue (mean ± SD) ([1]; 1 h post-injection): 1.51 ± 0.21 %IA/g tissue | Pancreas %IA/g tissue (mean ± SD) ([1]; 1 h post-injection): 2.48 ± 0.35 %IA/g tissue | Sm. Intestine %IA/g tissue (mean ± SD) ([1]; 1 h post-injection): 2.48 ± 0.35 %IA/g tissue and 2.49 ± 0.25 %IA/g tissue | Spleen %IA/g tissue (mean ± SD) ([1]; 1 h post-injection): 2.24 ± 0.36 %IA/g tissue | Adrenals %IA/g tissue (mean ± SD) ([1]; 2 h post-injection): 0.88 ± 0.06 %IA/g tissue | Blood %IA/g tissue (mean ± SD) ([1]; 2 h post-injection): 2.51 ± 0.93 %IA/g tissue | Bone %IA/g tissue (mean ± SD) ([1]; 2 h post-injection): 5.45 ± 0.98 %IA/g tissue | Brain %IA/g tissue (mean ± SD) ([1]; 2 h post-injection): 2.25 ± 0.50 %IA/g tissue | Heart %IA/g tissue (mean ± SD) ([1]; 2 h post-injection): 2.12 ± 0.58 %IA/g tissue | Kidneys %IA/g tissue (mean ± SD) ([1]; 2 h post-injection): 2.20 ± 0.38 %IA/g tissue | Liver %IA/g tissue (mean ± SD) ([1]; 2 h post-injection): 2.28 ± 0.49 %IA/g tissue | Lung %IA/g tissue (mean ± SD) ([1]; 2 h post-injection): 1.49 ± 0.49 %IA/g tissue | Muscles %IA/g tissue (mean ± SD) ([1]; 2 h post-injection): 1.14 ± 0.21 %IA/g tissue | Pancreas %IA/g tissue (mean ± SD) ([1]; 2 h post-injection): 1.73 ± 0.14 %IA/g tissue | Sm. Intestine %IA/g tissue (mean ± SD) ([1]; 2 h post-injection): 1.60 ± 0.31 %IA/g tissue | Spleen %IA/g tissue (mean ± SD) ([1]; 2 h post-injection): 1.58 ± 0.18 %IA/g tissue | Tumor %IA/g tissue (mean ± SD) ([1]; 1 h post-injection): 8.66 ± 1.02 %IA/g tissue | Tumor %IA/g tissue (mean ± SD) ([1]; 2 h post-injection): 7.47 ± 1.34 %IA/g tissue | tumor-to-muscle ratio ([2]; C-32 mice group, 2 h): 2.43 ± 0.14 | Adrenals %IA/g tissue (mean ± SD) ([2]; 1 h post-injection): 1.26 ± 0.39 %IA/g tissue | Blood %IA/g tissue (mean ± SD) ([2]; 1 h post-injection): 3.22 ± 0.64 %IA/g tissue | Bone %IA/g tissue (mean ± SD) ([2]; 1 h post-injection): 3.47 ± 0.78 %IA/g tissue | Brain %IA/g tissue (mean ± SD) ([2]; 1 h post-injection): 1.87 ± 0.21 %IA/g tissue | Heart %IA/g tissue (mean ± SD) ([2]; 1 h post-injection): 2.52 ± 0.15 %IA/g tissue | Kidneys %IA/g tissue (mean ± SD) ([2]; 1 h post-injection): 2.85 ± 0.37 %IA/g tissue | Liver %IA/g tissue (mean ± SD) ([2]; 1 h post-injection): 3.11 ± 0.49 %IA/g tissue | Lung %IA/g tissue (mean ± SD) ([2]; 1 h post-injection): 1.94 ± 0.67 %IA/g tissue | Muscles %IA/g tissue (mean ± SD) ([2]; 1 h post-injection): 2.35 ± 1.06 %IA/g tissue | Pancreas %IA/g tissue (mean ± SD) ([2]; 1 h post-injection): 2.49 ± 0.42 %IA/g tissue | Sm. Intestine %IA/g tissue (mean ± SD) ([2]; 1 h post-injection): 2.23 ± 0.21 %IA/g tissue | Spleen %IA/g tissue (mean ± SD) ([2]; 1 h post-injection): 1.96 ± 0.38 %IA/g tissue | Adrenals %IA/g tissue (mean ± SD) ([2]; 2 h post-injection): 0.77 ± 0.18 %IA/g tissue | Blood %IA/g tissue (mean ± SD) ([2]; 2 h post-injection): 2.40 ± 0.30 %IA/g tissue | Bone %IA/g tissue (mean ± SD) ([2]; 2 h post-injection): 5.09 ± 0.72 %IA/g tissue | Brain %IA/g tissue (mean ± SD) ([2]; 2 h post-injection): 1.36 ± 0.17 %IA/g tissue | Heart %IA/g tissue (mean ± SD) ([2]; 2 h post-injection): 1.75 ± 0.35 %IA/g tissue | Kidneys %IA/g tissue (mean ± SD) ([2]; 2 h post-injection): 1.84 ± 0.12 %IA/g tissue | Liver %IA/g tissue (mean ± SD) ([2]; 2 h post-injection): 1.99 ± 0.12 %IA/g tissue | Lung %IA/g tissue (mean ± SD) ([2]; 2 h post-injection): 1.33 ± 0.35 %IA/g tissue | Muscles %IA/g tissue (mean ± SD) ([2]; 2 h post-injection): 1.05 ± 0.14 %IA/g tissue | Pancreas %IA/g tissue (mean ± SD) ([2]; 2 h post-injection): 1.40 ± 0.10 %IA/g tissue | Sm. Intestine %IA/g tissue (mean ± SD) ([2]; 2 h post-injection): 1.33 ± 0.06 %IA/g tissue | Spleen %IA/g tissue (mean ± SD) ([2]; 2 h post-injection): 1.22 ± 0.08 %IA/g tissue | Tumor %IA/g tissue (mean ± SD) ([2]; 1 h post-injection): 3.91 ± 0.23 %IA/g tissue | Tumor %IA/g tissue (mean ± SD) ([2]; 2 h post-injection): 2.53 ± 0.19 %IA/g tissue | time post-injection by which tumor is clearly visible on microPET images ([3]; B16F1 melanoma tumor): ≤ 10 min | standardized uptake value (SUV) of tumor from microPET images ([3]; B16F1 tumor): 1.53 ± 1.01 | radioactivity level in B16F1 tumor from microPET time activity curve ([3]; by 47 min): over 3.5 %IA/g tumor | standardized uptake value (SUV) of tumor from microPET images [4]: 0.25 ± 0.04 | visibility of tumor on microPET scans [4]: not visible; also recorded: not discernable

— PMC5548701, “Selective targeting of melanoma using N-(2-diethylaminoethyl) 4-[^18F]fluoroethoxy benzamide (4-[^18F]FEBZA): a novel PET imaging probe” (EJNMMI Research, 2017)
